Tested on: LRP-1
Test: Single binding energy of a ligand/LRP-1 receptor pair
Text: wherein: • λ is the density of the ligand type on the external surface of the microparticle or nanoparticle (number per nm^2 • A is the microparticle or nanoparticle surface area (in nm^2); • ξ is the number of the LRP-1 receptors accessible to the nanoparticles, and thus ξ=ΓA where, Γ is the LRP-1 surface density (number per nm^2) and A is as defined above; • β=(kBT)^−1 wherein kB is the Boltzmann constant (in JK^−1) and T is the absolute temperature in Kelvin; • εB is the single energy of binding of a ligand type/LRP-1 receptor pair (in J); and • uS is the steric potential between the nanoparticle or microparticle and the cell surface (in J).
The single ligand binding potential εB between a given ligand and the LRP-1 receptor can be measured experimentally by binding assays including Surface plasmon resonance spectroscopy, Isothermal titration calorimetry, radiolabeling or fluorescent labelling. It can also be estimated computationally using molecular docking and or molecular dynamics methods.

Chain of LRP-1 (Q07954 20-4544, species assumed): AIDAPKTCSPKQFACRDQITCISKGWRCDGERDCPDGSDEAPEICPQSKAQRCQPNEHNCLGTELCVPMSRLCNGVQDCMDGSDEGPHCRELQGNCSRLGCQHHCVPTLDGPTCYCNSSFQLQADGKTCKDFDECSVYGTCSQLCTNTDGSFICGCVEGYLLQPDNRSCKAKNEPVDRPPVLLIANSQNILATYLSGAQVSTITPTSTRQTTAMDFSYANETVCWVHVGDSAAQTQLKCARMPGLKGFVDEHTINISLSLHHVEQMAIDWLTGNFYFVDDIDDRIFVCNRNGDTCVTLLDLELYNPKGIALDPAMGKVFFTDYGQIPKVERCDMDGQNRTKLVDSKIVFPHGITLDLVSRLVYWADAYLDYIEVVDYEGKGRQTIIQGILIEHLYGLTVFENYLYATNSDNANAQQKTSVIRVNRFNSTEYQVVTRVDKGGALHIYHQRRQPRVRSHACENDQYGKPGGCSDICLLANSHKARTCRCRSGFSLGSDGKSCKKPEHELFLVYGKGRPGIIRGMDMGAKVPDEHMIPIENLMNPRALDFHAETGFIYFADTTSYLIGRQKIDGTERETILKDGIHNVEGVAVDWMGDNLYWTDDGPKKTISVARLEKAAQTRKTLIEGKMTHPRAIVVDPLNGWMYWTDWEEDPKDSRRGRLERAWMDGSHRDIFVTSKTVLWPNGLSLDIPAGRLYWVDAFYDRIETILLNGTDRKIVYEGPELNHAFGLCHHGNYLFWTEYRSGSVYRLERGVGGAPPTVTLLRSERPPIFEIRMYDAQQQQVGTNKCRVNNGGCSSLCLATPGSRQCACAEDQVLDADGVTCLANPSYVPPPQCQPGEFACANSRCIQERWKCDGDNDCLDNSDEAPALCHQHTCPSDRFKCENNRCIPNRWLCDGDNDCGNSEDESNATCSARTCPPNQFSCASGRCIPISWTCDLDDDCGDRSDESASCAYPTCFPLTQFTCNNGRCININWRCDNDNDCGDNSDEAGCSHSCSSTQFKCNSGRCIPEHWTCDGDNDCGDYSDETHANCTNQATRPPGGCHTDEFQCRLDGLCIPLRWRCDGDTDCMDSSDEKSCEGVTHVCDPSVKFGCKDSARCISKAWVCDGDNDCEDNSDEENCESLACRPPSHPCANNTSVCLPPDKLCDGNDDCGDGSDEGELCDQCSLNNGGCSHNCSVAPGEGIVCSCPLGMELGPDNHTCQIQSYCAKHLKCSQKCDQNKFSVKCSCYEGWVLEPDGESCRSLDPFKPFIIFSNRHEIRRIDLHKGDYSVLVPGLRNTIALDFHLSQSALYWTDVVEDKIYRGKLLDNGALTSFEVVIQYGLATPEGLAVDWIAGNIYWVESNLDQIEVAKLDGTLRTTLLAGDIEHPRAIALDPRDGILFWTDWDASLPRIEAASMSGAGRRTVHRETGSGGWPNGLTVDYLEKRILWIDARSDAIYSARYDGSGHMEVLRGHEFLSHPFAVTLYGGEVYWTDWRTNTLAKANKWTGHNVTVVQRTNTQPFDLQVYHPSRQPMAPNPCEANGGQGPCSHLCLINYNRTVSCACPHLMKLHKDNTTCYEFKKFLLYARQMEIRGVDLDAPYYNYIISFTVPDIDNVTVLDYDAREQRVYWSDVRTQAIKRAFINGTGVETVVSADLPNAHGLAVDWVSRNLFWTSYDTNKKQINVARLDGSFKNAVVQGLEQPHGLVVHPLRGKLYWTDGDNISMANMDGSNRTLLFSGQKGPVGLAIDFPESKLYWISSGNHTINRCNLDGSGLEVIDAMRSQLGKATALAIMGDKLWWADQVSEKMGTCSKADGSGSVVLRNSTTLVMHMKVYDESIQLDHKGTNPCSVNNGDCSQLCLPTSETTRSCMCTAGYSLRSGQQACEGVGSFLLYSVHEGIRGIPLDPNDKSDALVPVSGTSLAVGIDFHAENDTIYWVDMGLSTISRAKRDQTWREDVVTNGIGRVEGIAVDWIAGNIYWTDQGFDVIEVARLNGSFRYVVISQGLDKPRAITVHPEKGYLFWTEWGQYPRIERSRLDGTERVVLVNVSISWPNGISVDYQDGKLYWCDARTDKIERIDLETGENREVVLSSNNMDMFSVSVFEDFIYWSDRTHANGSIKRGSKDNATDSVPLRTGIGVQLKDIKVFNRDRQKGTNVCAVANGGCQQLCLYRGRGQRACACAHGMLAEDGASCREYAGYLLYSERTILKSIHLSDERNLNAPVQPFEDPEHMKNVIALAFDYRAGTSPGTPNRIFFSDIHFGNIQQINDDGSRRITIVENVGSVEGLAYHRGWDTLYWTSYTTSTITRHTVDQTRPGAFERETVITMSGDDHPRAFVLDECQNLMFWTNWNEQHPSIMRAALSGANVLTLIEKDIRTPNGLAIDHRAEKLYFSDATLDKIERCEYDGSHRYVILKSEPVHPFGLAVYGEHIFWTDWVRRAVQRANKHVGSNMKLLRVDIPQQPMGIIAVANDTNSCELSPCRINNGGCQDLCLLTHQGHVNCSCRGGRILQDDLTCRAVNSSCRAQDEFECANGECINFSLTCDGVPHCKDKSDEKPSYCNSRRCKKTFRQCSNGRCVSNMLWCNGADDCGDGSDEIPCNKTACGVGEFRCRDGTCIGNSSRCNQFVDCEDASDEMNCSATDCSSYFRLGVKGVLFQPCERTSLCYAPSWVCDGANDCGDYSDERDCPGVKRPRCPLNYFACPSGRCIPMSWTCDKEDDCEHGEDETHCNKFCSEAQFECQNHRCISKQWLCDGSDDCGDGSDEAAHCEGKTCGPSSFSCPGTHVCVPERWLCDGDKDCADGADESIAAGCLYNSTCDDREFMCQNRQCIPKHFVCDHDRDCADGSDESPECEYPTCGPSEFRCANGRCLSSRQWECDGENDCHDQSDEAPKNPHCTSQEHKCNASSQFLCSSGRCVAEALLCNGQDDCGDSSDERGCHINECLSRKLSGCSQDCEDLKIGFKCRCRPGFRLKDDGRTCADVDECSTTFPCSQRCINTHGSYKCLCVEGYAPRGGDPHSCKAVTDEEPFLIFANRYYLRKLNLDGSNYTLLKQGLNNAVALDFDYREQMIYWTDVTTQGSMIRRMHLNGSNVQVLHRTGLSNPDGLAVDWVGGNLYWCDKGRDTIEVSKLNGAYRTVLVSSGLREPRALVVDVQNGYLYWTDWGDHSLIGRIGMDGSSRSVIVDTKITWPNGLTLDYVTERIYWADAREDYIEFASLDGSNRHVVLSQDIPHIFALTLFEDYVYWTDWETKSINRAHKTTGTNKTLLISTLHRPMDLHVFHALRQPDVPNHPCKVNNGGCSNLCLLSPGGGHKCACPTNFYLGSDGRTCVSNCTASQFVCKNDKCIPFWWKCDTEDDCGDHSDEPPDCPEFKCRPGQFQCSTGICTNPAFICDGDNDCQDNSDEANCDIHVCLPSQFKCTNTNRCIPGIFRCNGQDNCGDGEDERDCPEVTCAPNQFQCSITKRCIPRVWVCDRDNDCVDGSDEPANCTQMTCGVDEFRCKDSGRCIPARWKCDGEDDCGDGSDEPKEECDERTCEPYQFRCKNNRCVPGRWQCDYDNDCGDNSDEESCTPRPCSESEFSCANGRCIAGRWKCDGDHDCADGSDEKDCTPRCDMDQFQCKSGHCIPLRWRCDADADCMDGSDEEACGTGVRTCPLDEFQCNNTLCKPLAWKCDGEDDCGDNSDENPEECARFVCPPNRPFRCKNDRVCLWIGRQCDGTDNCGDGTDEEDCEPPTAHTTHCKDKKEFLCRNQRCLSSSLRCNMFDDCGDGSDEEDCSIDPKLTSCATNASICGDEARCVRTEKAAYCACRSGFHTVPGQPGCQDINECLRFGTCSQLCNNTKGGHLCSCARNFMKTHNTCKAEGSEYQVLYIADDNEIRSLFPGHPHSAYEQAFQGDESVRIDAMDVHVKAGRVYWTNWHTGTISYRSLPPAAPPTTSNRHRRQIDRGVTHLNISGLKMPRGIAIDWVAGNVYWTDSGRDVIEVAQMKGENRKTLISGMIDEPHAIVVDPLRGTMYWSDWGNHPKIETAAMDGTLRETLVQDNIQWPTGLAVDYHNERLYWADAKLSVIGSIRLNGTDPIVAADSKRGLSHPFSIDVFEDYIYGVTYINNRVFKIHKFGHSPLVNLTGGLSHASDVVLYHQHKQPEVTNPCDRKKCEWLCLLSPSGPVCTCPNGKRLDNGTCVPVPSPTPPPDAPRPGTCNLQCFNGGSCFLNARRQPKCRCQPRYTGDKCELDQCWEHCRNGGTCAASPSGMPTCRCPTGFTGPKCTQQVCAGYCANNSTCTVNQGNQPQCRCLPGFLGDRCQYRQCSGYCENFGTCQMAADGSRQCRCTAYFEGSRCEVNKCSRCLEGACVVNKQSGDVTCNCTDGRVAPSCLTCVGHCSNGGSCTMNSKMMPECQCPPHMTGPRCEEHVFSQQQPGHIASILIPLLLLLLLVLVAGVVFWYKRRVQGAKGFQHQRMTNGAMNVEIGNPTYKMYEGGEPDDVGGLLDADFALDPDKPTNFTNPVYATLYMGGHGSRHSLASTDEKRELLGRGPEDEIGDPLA

## TFFYGGSRGKRNNFKTEEY [Angiopep-2]
  εB, single energy of binding of ligand/LRP-1 receptor pair: −15 kBT

Source: US20250000999A1, “POLYMERSOMES FOR CLEARANCE OF AMYLOID BETA AND/OR TAU PROTEINS” (UCL Business Ltd, priority 2021, published 2025)
